System: peripheral blood mononuclear cell (PBMC) cultures
Assay: Cytokine expression in PBMC cultures challenged with mold cells or PHA (multiplex immunoassay)
Type: cell-based, human
Conditions: PBMC from healthy volunteers, 18 hours
Excerpt: PBMC were isolated from blood collected from patients and control subjects as previously described [Gillis B, Gavin I M, Arbieva Z, King S T, Jayaraman S, Prabhakar B S. Identification of human cell responses to benzene and benzene metabolites. Genomics 2007; 90: 324-333 and Gavin I M, Gillis B, Arbieva Z, Prabhakar B S. Identification of human cell responses to hexavalent chromium. Environ Mol Mutagen 2007; 48: 650-657.] and incorporated herein by reference. One milliliter of blood plasma was also collected from the blood samples and stored frozen at −80° C. […]
After overnight culture of the PMBC, one milliliter of supernatant was removed from each plate, centrifuged at 16,000 g at +4° C. for 10 minutes, and clear cell-free culture media were collected. Cytokine concentrations in culture supernatants, as well as in plasma, were measured by multiplex immunoassay based on Luminex xMAP™ bead array technology using a Bio-Plex 200 fluorescence bead reader (BioRad Laboratories, Hercules, Calif.). […]
Statistical analyses were performed with Microsoft Excel and Analyse-it software (Analyse-it Software Ltd., Leeds, UK). An increase of cytokine expression in immunologic challenges was evaluated using a Student's t-test. […] The statistical significance of the difference in responses to various immunologic challenges was evaluated by using a one-way ANOVA test with Tukey type I error correction. […]

## phytohemagglutinin [PHA]
  IL-2, IL-4 and IL-5 in culture supernatants: detected
